Laboratory results reported in US20250011651A1, “OIL DISPERSANT FORMULATION, METHODS AND USES THEREOF” (INSTITUTO SUPERIOR TÉCNICO, priority 2021, published 2025).

Assay: Hydrophilic-lipophilic balance (HLB)
Format: physicochemical
Conditions: single surfactant / MEL mixture
Source text: Dispersants currently used in oil spills are usually a blend of non-ionic and anionic surfactants dissolved in a solvent base. Surfactants are amphiphilic molecules containing both hydrophobic and hydrophilic regions, so they are soluble in both oil and water phases. An empirical parameter used for the classification of surfactants is the hydrophilic-lipophilic balance (HLB) number. The HLB is defined as: […]
Where Mh is the molecular weight of the hydrophilic head group of the surfactant molecule, and M is the molecular mass of the complete molecule. HLB is given on a scale of 1-20. […] A surfactant with an HLB between 8 and 12 may promote either type of emulsion, but generally promotes O/W emulsions.
In an embodiment, the results can be explained by providing the molecular level discussion of the synergy between MEL and polyethylene glycol sorbitan monooleate molecules. As explained earlier, MELs are hydrophobic and polyethylene glycol sorbitan monooleate is quite hydrophilic and water soluble. The HLB of the combination of the two surfactants can be calculated by the following expression: […]
Where, WM and WPGSE are, respectively, the weight fraction of MELs and polyethylene glycol sorbitan ester, in particular polyethylene glycol sorbitan monooleate, in the blend.

- HLB: 15
Substance: polyethylene glycol sorbitan monooleate
